What was measured:
human lung fibroblasts = experiment: Western blot analysis of cellular and medium collagen polypeptides, lung fibroblasts; format: cell-based; settings: 16 h, ML-7 40 μM, blebbistatin 100 μM, vs control cells; for secretion of collagen α1(I) polypeptide into the medium / secretion of collagen α2(I) polypeptide into the medium / secretion/expression of fibronectin: cytochalasin B 20 μM
Method: (§1) ML-7, blebbistatin, cytochalasin B, puromycin, and cycloheximide were purchased from Sigma. ML-7 was used at 40 μM, blebbistatin was used at 100 μM, and cytochalasin B was used at 20 μM. Cells were incubated with the drugs for 16 h before analysis. Puromycin (200 μg/ml) and cycloheximide (100 μg/ml) were added to the cells for 2 h. Human lung fibroblasts have been described previously.16 Scleroderma fibroblasts were purchased from the European Collection of Cell Cultures (cell line BM0070) and derived from the skin of a scleroderma patient. MEFs were derived from knock-in mice in which the 5′SL of the collagen α1(I) gene has been mutated (Parsons et al., submitted). Several independent cell isolates were used throughout the study. All cells were cultured in Dulbecco's modified Eagle's medium supplemented with 10% fetal bovine serum for up to 10 passages. Plasmid constructs and adenovirus preparation. The HA-tagged LARP6 clone and the deletion mutants have been described previously.^16 Adenoviruses were constructed by recloning of the constructs into the pAdCMVTRACK vector, followed by recombination with the pAdEasy vector and amplification, as described previously.^48 Expression of each construct was verified by Western blot analysis. The viruses made express both the full-size test protein and the green fluorescent protein (GFP), which is encoded by an independent transcription unit.^48 Expression of GFP served as control for viral transduction. RT-PCR analysis Total cellular RNA was isolated using an RNA isolation kit (Sigma). RT-PCRs were performed with 100 ng of total RNA or using rTth reverse transcriptase (Boca Scientific, Boca Raton, Fla.). [^32P]dCTP was included in the PCR step to label the products, which were resolved on sequencing gels, as described previously.^8,31,49,50 When RNA from polysomal fractions was analyzed, an equal aliquot of each fraction was used. The number of cycles was adjusted to within the linear range of the reaction. The primers used for RT-PCR were as follows: h-collagen α1(I), 5′ primer […] (SEQ ID NO:3) and 3′ primer […] (SEQ ID NO:4); h-collagen α2(I), 5′ primer […] (SEQ ID NO:5) and 3′ primer […] (SEQ ID NO:6).
(§2) Protein concentration was estimated by the Bradford assay, with bovine serum albumin as standard.^51 Western blot analyses of cellular proteins were performed using 50 μg of protein. For Western blot analysis of secreted proteins, equal numbers of cells were seeded, serum-free medium was added to the cells, and incubation continued for 3 h. The medium was collected, and an aliquot was analyzed directly by Western blot analysis. Use of serum free medium in collecting secreted proteins is essential because fetal calf serum contains substantial amounts of collagen and fibronectin.^15,31 For immunostaining, cells were seeded onto glass coverslips. After treatment, the cells were fixed with 4% paraformaldehyde for 30 min at room temperature and permeabilized with 0.5% Triton X-100 in phosphatebuffered saline (PBS) for 10 min. After the cells had been blocked with 10% goat serum/5% bovine serum albumin in PBS for 1 h at room temperature, they were incubated with primary antibody overnight at 4° C., washed, and visualized with AlexaFluor594-conjugated or Cy-2-conjugated secondary antibodies. The cells were mounted using VECTASHIELD mounting medium containing […], 6-diamidino-2-phenylindole (Vector Laboratories), and images were taken by a Leica TCS SP2 AOBS laser confocal microscope equipped with a Chameleon Ti: Sapphire multiphoton laser. Optical sections were processed with LCSLite software.
(§3) To assess the role of nonmuscle myosin in collagen synthesis, we disrupted nonmuscle myosin filaments in two different cell types: primary human lung fibroblasts and primary scleroderma skin fibroblasts. These cells are responsible for lung and skin fibrosis. […]

[1] = system: primary scleroderma skin fibroblasts; experiment: Western blot analysis of cellular and medium collagen polypeptides, scleroderma fibroblasts; format: cell-based, human; settings: 16 h, ML-7 40 μM, blebbistatin 100 μM; for secretion of collagen α1(I) polypeptide into the medium / secretion of collagen α2(I) polypeptide into the medium / secretion/expression of fibronectin: cytochalasin B 20 μM
Method: as §1, §2, §3

nonmuscle myosin IIB [2] = experiment: Immunoprecipitation of nonmuscle myosin IIB and RT-PCR of collagen mRNAs; format: cell-based, human; settings: lung fibroblasts; cycloheximide 100 μg/ml or puromycin 200 μg/ml, 2 h
Method: ML-7, blebbistatin, cytochalasin B, puromycin, and cycloheximide were purchased from Sigma. ML-7 was used at 40 μM, blebbistatin was used at 100 μM, and cytochalasin B was used at 20 μM. Cells were incubated with the drugs for 16 h before analysis. Puromycin (200 μg/ml) and cycloheximide (100 μg/ml) were added to the cells for 2 h. Human lung fibroblasts have been described previously.16 Scleroderma fibroblasts were purchased from the European Collection of Cell Cultures (cell line BM0070) and derived from the skin of a scleroderma patient. MEFs were derived from knock-in mice in which the 5′SL of the collagen α1(I) gene has been mutated (Parsons et al., submitted). […] [^32P]dCTP was included in the PCR step to label the products, which were resolved on sequencing gels, as described previously.^8,31,49,50 When RNA from polysomal fractions was analyzed, an equal aliquot of each fraction was used. […]
One of the roles of nonmuscle myosin filaments may be to present collagen mRNAs to ribosomes. Therefore, we assessed if the association of collagen mRNAs with nonmuscle myosin is dependent on intact polysomes. […] We then immunoprecipitated nonmuscle myosin from lung fibroblasts treated with cycloheximide or puromycin and analyzed if this can change the pull-down of collagen mRNAs. As control, the association with vimentin was analyzed in the same samples (FIG. 9b). […]

nonmuscle myosin IIB [3] = target: T1, nonmuscle myosin IIB (human, UniProt P35580 1-1976, limits assumed); experiment: co-immunoprecipitation with anti-HA antibody from human lung fibroblasts, Western blot with anti-myosin IIB
T1 construct: Endogenous protein in lysate of human lung fibroblasts, detected by Western blot with anti-myosin IIB (anti-MYH10) antibody; also called MYO IIB; MYH10
Method: (§4) HA, Western blot analysis using anti-HA antibody as control for immunoprecipitation efficiency of the tagged proteins. (c) Experiment as in (b), but Western blot analysis was performed using anti-myosin IIA antibody (MYO IIA). […] Experiment as in (b), but the lysate was treated with Rnase. A prior to immunoprecipitation (lane 1) or was not treated (lanes 2 and 3). The immunoprecipitate was analyzed with anti-myosin IIB antibody (MYO IIB), anti-fibronectin antibody (FIB; as control for specificity), and anti-HA antibody (HA; as control for precipitation efficiency).

nonmuscle myosin IIA = target: T2, nonmuscle myosin IIA (human, UniProt P35579 2-1960); experiment: co-immunoprecipitation with anti-HA antibody from human lung fibroblasts, Western blot with anti-myosin IIA
T2 construct: Endogenous protein in lysate of human lung fibroblasts, detected with anti-myosin IIA antibody; also called MYO IIA
Method: as §4

fibronectin = target: T3, fibronectin (human, UniProt P02751 32-2477, limits assumed); experiment: co-immunoprecipitation with anti-HA antibody from human lung fibroblasts, Western blot with anti-fibronectin
T3 construct: Specificity control in the co-immunoprecipitations, detected with anti-fibronectin antibody
T3 sequence (P02751 32-2477 limits assumed): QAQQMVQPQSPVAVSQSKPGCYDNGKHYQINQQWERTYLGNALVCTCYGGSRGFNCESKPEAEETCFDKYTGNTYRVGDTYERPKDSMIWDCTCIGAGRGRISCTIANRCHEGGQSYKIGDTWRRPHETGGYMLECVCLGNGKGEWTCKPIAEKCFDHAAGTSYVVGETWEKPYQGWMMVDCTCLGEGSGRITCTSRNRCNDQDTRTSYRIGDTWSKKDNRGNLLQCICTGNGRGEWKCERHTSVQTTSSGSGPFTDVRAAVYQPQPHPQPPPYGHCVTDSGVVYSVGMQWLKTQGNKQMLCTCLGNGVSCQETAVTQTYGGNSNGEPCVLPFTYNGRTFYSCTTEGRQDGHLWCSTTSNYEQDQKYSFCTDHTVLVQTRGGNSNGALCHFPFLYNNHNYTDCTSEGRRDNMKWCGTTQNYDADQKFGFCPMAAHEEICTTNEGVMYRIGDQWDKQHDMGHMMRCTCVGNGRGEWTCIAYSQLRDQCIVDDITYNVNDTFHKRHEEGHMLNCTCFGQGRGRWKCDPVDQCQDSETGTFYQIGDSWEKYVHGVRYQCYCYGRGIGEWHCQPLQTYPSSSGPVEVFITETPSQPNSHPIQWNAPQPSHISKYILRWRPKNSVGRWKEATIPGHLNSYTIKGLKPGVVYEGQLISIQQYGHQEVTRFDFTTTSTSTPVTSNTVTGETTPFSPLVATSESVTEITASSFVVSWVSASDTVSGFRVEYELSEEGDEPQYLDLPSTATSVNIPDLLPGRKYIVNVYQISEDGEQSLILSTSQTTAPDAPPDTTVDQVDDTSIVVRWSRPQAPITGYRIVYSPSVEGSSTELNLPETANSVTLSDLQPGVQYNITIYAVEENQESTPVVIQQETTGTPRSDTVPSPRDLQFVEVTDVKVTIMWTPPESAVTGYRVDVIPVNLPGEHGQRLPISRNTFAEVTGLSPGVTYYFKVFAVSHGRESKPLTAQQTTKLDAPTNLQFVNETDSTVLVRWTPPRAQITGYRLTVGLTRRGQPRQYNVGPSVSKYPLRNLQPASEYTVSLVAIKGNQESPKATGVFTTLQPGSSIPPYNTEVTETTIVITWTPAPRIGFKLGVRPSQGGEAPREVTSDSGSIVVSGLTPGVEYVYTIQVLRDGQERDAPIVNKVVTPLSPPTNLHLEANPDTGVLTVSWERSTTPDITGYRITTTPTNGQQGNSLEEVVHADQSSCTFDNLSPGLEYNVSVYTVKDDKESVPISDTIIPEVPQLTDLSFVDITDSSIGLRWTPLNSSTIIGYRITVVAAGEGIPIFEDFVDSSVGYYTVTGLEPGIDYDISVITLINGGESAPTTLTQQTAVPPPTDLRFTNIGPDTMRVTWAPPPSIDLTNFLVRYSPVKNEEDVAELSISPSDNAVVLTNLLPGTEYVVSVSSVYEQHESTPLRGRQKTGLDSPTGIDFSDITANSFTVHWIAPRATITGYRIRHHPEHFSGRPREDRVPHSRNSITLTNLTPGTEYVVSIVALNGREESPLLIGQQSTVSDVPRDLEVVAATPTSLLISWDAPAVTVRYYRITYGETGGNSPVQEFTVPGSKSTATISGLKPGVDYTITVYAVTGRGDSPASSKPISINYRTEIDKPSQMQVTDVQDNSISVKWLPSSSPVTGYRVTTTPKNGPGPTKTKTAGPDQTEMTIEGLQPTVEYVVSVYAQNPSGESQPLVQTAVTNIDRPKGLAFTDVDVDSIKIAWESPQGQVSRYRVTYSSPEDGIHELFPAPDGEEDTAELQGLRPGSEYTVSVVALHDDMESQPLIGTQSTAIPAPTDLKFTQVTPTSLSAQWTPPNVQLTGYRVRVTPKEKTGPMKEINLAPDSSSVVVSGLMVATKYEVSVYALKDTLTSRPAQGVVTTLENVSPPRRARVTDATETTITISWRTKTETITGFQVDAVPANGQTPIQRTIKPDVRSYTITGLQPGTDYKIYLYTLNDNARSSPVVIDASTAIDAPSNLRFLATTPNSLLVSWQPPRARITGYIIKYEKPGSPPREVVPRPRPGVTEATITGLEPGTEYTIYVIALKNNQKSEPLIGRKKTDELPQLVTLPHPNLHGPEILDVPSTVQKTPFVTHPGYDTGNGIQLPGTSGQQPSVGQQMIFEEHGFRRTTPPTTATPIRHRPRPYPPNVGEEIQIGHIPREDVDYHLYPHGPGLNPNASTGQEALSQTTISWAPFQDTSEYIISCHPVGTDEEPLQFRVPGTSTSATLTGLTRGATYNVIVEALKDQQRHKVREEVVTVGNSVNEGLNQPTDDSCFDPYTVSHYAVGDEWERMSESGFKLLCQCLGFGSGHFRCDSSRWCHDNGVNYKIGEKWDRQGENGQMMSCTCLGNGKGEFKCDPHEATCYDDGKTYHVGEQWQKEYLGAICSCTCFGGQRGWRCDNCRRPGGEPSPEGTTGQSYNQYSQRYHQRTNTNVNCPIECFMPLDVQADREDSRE

T1 sequence (P35580 whole entry): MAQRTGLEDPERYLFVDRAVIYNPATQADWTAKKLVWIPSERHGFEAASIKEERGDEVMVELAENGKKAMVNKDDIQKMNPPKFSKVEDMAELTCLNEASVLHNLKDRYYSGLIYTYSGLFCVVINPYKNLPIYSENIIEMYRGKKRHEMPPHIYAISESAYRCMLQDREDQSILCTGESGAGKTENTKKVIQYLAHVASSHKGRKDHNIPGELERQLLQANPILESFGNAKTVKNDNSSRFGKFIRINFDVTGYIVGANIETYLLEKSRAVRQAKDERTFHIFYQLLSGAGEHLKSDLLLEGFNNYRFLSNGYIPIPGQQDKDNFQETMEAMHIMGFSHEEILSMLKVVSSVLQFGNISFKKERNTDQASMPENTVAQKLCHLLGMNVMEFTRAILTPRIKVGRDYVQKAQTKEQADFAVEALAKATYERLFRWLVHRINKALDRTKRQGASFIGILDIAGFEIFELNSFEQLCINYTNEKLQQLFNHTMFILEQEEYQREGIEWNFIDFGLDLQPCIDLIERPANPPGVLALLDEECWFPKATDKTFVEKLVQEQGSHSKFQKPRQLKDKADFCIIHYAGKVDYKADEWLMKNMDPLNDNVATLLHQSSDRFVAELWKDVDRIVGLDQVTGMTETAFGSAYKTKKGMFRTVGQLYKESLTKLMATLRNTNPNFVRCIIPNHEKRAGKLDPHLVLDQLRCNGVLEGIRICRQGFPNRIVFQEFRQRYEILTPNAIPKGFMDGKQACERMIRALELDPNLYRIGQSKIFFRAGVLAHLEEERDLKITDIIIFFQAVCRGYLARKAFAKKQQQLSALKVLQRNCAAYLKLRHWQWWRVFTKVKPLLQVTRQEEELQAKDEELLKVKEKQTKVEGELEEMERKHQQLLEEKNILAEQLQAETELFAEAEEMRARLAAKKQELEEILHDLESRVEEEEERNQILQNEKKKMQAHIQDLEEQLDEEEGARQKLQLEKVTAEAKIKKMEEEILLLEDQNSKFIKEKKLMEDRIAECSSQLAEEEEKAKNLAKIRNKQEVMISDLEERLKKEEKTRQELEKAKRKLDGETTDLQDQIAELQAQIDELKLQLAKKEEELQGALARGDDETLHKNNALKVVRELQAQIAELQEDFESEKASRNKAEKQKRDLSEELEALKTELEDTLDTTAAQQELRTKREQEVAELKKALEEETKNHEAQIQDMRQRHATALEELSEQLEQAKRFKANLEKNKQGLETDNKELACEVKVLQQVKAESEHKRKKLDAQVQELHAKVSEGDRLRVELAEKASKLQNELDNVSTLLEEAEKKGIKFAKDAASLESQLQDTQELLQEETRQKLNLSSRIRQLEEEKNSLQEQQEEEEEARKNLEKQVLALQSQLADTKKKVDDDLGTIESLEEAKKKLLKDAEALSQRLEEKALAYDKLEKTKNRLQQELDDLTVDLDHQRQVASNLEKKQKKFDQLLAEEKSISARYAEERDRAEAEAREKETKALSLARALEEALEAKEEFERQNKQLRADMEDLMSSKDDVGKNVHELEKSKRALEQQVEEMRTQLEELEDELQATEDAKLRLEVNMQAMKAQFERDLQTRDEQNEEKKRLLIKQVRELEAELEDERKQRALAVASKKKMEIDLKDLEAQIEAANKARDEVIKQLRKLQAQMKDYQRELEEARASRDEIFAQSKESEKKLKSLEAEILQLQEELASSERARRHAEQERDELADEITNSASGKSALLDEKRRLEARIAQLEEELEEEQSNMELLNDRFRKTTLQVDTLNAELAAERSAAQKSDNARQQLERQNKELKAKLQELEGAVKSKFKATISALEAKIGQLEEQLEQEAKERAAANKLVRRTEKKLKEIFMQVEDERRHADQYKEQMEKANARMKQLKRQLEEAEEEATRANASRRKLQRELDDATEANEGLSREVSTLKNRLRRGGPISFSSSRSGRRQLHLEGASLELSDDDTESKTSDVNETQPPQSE

Row | Molecule | secretion of collagen α1(I) polypeptide into the medium (human lung fibroblasts) | secretion of collagen α2(I) polypeptide into the medium (human lung fibroblasts) | secretion/expression of fibronectin (human lung fibroblasts) | secretion of collagen α1(I) polypeptide into the medium [1] | secretion of collagen α2(I) polypeptide into the medium [1] | secretion/expression of fibronectin [1] | binding result (nonmuscle myosin IIB [3]) | further results
1 | Cc1ccc2c(c1)C(=O)C1(O)CCN(c3ccccc3)C1=N2 (centres unmarked) [blebbistatin] | minimally affecting | reduced | small effect | minimally affecting | abolished | small effect |  | intracellular level of collagen α1(I) and α2(I) polypeptides (human lung fibroblasts): unchanged; intracellular level of collagen α1(I) polypeptide [1]: unchanged; intracellular level of collagen α2(I) polypeptide [1]: unchanged
2 | C[C@@H]1C[C@@H]([C@H](O)CC2CC(=O)NC(=O)C2)C(=O)[C@@H](C)C1 [cycloheximide] |  |  |  |  |  |  |  | collagen α1(I) and α2(I) mRNAs pulled down with nonmuscle myosin IIB (nonmuscle myosin IIB [2]): both collagen mRNAs were pulled down
3 | C=C1[C@@H](C)[C@H]2[C@H](Cc3ccccc3)NC(=O)[C@]23OC(=O)/C=C/[C@H](O)CCC[C@@H](C)C/C=C/[C@H]3[C@@H]1O [cytochalasin B] | diminished | diminished | had an effect | no effect | small effect | small effect |  | 
4 | HA-tagged LARP6 lacking the C-terminal domain (ΔC-LARP6) (other, Expressed in human lung fibroblasts; also called HA-tagged ΔC-LARP6; C-terminal deletion mutant of LARP6; not shown: HA tag) MAQSGGEARPGPKTAVQIRVAIQEAEDVDELEDEEEGAETRGAGDPARYLSPGWGSASEEEPSRGHSGTTASGGENEREDLEQEWKPPDEELIKKLVDQIEFYFSDENLEKDAFLLKHVRRNKLGYVSVKLLTSFKKVKHLTRDWRTTAHALKYSVVLELNEDHRKVRRTTPVPLFPNENLPSKMLLVYDLYLSPKLWALATPQKNGRVQEKVMEHLLKLFGTFGVISSVRILKPGRELPPDIRRISSRYSQVGTQECAIVEFEEVEAAIKAHEFMITESQGKENMKAVLIGMKPPKKKP |  |  |  |  |  |  | no binding | binding result (nonmuscle myosin IIA): no binding
5 | HA-tagged full-size LARP6 (other, Expressed from adenovirus in human lung fibroblasts and immunoprecipitated from cell lysate with anti-HA antibody; also called HA-tagged LARP6; not shown: HA tag) MAQSGGEARPGPKTAVQIRVAIQEAEDVDELEDEEEGAETRGAGDPARYLSPGWGSASEEEPSRGHSGTTASGGENEREDLEQEWKPPDEELIKKLVDQIEFYFSDENLEKDAFLLKHVRRNKLGYVSVKLLTSFKKVKHLTRDWRTTAHALKYSVVLELNEDHRKVRRTTPVPLFPNENLPSKMLLVYDLYLSPKLWALATPQKNGRVQEKVMEHLLKLFGTFGVISSVRILKPGRELPPDIRRISSRYSQVGTQECAIVEFEEVEAAIKAHEFMITESQGKENMKAVLIGMKPPKKKPAKDKNHDEEPTASIHLNKSLNKRVEELQYMGDESSANSSSDPESNPTSPMAGRRHAATNKLSPSGHQNLFLSPNASPCTSPWSSPLAQRKGVSRKSPLAEEGRLNCSTSPEIFRKCMDYSSDSSVTPSGSPWVRRRRQAEMGTQEKSPGTSPLLSRKMQTADGLPVGVLRLPRGPDNTRGFHGHERSRACV |  |  |  |  |  |  |  | binding result (fibronectin): no binding
6 | HA-tagged RBMS3 (other, UniProt Q6XE24 1-437, looked up, Control protein expressed in human lung fibroblasts; not shown: HA tag) MGKRLDQPQMYPQYTYYYPHYLQTKQSYAPAPHPMAPPSPSTNSSSNNSSNNSSGEQLSKTNLYIRGLPPGTTDQDLIKLCQPYGKIVSTKAILDKNTNQCKGYGFVDFDSPAAAQKAVASLKANGVQAQMAKQQEQDPTNLYISNLPISMDEQELENMLKPFGHVISTRILRDANGVSRGVGFARMESTEKCEVVIQHFNGKYLKTPPGIPAPSEPLLCKFADGGQKKRQNQSKYTQNGRPWPREGEAGMALTYDPTAAIQNGFYSSPYSIATNRMIPQTSITPFIAASPVSTYQVQSTSWMPHPPYVMQPTGAVITPTMDHPMSMQPANMMGPLTQQMNHLSLGTTGTIQSQDRIMILHQLLCQYMTAAAPMQGTYIPQYTPVPPTAVSIEGVVADTSPQTVAPSSQDTSGQQQQIAVDTSNEHAPAYSYQQSKP |  |  |  |  |  |  | no binding | 
